# Read-outs that look alike come from different tables or passages of the source.
# Experiments:
# mice [1] = tested on: mice; design: method as in PMID 21649644; conditions: 0.03 and 0.3 mg/kg; same experimental conditions; cited from earlier work
# [2] = cited from earlier work
# PDE10A1 = target: T1, PDE10A1 (Homo sapiens, UniProt Q9Y233); assay: PDE enzymatic profile; type: biochemical
# T1 construct: purchased Scottish Biochem (Glasgow, Scotland, UK)
# PDE7A = target: T2, PDE7A (Homo sapiens, UniProt Q13946); assay: PDE enzymatic profile; type: biochemical
# T2 construct: purchased Scottish Biochem (Glasgow, Scotland, UK)
# T2 sequence (Q13946 whole entry): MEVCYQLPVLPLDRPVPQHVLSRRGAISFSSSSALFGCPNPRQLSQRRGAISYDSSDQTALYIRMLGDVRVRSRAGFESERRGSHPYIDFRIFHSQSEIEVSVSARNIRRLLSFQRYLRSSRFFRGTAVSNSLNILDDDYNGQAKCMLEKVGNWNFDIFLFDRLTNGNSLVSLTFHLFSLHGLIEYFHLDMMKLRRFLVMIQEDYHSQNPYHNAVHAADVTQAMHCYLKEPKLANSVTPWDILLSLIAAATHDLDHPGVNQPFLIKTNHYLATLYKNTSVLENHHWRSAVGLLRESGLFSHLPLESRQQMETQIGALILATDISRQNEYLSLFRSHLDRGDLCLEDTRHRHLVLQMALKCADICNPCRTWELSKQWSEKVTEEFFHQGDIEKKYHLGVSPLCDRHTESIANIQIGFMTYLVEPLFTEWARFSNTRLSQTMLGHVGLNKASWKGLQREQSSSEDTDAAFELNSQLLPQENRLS
# PDE8A1 = target: T3, PDE8A1 (Homo sapiens, UniProt O60658); assay: PDE enzymatic profile; type: biochemical
# T3 construct: purchased Scottish Biochem (Glasgow, Scotland, UK)
# T3 sequence (O60658 whole entry): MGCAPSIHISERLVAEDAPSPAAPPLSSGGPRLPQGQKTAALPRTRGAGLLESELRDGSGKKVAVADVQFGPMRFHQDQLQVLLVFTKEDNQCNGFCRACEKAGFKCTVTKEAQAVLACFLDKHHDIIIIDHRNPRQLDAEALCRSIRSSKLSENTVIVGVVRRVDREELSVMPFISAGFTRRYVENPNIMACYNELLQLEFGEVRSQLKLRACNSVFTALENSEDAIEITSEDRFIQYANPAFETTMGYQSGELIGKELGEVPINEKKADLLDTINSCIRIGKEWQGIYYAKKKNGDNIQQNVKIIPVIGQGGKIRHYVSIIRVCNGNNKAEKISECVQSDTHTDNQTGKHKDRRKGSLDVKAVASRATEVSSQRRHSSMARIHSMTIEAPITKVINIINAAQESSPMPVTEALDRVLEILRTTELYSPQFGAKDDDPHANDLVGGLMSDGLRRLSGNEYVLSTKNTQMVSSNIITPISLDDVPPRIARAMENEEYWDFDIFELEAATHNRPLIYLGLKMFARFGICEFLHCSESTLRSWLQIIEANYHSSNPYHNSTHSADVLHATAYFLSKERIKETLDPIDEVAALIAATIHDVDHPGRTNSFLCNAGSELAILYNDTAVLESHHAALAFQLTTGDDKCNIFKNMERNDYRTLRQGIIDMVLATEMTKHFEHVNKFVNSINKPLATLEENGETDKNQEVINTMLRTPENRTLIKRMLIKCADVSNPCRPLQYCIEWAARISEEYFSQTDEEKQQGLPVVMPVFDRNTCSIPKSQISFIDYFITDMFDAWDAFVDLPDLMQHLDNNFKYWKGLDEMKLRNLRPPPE
# PDE2A3 = target: T4, PDE2A3 (Homo sapiens, UniProt O00408); assay: PDE enzymatic profile; type: biochemical; conditions: read-out: GEBR-32a % inhibition, recombinant human PDE expressed in baculovirus, NI = no inhibition
# T4 construct: purchased Scottish Biochem (Glasgow, Scotland, UK)
# PDE8B1 = target: T5, PDE8B1 (Homo sapiens, UniProt O95263); assay: PDE enzymatic profile; type: biochemical
# T5 construct: purchased Scottish Biochem (Glasgow, Scotland, UK)
# T5 sequence (O95263 whole entry): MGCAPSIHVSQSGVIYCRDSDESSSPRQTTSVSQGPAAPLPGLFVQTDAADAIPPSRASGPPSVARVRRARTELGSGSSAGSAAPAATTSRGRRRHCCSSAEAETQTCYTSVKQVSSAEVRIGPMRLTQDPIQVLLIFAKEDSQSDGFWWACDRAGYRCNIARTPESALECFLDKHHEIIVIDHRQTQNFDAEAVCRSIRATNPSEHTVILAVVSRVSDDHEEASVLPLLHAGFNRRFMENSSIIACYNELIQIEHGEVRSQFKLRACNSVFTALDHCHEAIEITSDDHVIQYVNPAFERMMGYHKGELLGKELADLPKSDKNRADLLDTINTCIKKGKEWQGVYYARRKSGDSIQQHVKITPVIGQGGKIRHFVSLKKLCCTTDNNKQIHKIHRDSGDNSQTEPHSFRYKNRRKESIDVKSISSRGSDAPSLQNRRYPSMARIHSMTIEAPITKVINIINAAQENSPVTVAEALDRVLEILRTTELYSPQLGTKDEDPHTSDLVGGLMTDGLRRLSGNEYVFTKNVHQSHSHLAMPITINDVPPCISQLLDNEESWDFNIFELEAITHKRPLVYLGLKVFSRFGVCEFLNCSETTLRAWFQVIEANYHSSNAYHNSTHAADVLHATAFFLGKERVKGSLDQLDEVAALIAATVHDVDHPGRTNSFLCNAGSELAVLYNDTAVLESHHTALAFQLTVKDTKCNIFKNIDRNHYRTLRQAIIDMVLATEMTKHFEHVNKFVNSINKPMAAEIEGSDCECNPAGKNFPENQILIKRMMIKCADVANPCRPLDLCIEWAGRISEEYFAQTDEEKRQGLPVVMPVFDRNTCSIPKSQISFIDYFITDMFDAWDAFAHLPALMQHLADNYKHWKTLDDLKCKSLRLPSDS
# PDE4B3 = target: T6, PDE4B3 (Homo sapiens, UniProt Q07343); assay: PDE enzymatic profile; type: biochemical; conditions: read-out: GEBR-32a % inhibition, recombinant human PDE expressed in baculovirus
# T6 construct: purchased Scottish Biochem (Glasgow, Scotland, UK); host or cells: baculovirus system
# PDE7B = target: T7, PDE7B (Homo sapiens, UniProt Q9NP56); assay: PDE enzymatic profile; type: biochemical
# T7 construct: purchased Scottish Biochem (Glasgow, Scotland, UK)
# T7 sequence (Q9NP56 whole entry): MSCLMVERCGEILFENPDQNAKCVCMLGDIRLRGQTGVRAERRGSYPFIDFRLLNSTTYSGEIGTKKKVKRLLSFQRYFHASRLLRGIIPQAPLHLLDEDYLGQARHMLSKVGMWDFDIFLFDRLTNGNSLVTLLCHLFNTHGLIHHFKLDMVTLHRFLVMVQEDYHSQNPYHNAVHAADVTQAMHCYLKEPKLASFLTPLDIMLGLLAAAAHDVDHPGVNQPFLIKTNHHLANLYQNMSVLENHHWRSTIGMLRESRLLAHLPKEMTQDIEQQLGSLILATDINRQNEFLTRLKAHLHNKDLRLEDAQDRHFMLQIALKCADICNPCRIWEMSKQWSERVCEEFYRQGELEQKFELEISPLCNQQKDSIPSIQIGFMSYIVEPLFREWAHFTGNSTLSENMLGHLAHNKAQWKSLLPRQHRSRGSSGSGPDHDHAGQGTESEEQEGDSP
# HTLA cells [3] = assay: Cytotoxicity, lactate dehydrogenase release; type: cell-based, human; conditions: 100 μM, 24 hours
# Description: (§1) At the end of the incubation period, lactate-dehydrogenase release was measured in conditioned media using the Cytoxicity Detection Kit^PLUS (Roche, Germany) according to manufacturer protocols.
# HTLA cells [4] = assay: cAMP determination in cultured cells; type: cell-based, human; conditions: 100 μM
# Description: The cells used in this study (human neuroblastoma cell line HTLA-230, HTLA) were grown in Roswell Park Memorial Institute medium (RPMI), with 0.1 mM non-essential aminoacids and 10% fetal bovine serum. At the end of treatments, intracellular cAMP was measured with the DetectX® Direct Cyclic AMP Enzyme Immunoassay Kit (Arbor Assay, MI, USA), following the manufacturer’s protocol.
# (§2) Results from cells and slices are presented as fold increase and represent mean ± S.E.M. of the number of experiments reported in the figure legend. Normal distribution was evaluated by Kolmogorov–Smirnov test and then data have been analysed by one-way ANOVA followed by Newman-Keuls or Dunnett’s tests, as appropriate.
# PDE1B = target: T8, PDE1B (Homo sapiens, UniProt Q01064); assay: PDE enzymatic profile; type: biochemical
# T8 construct: purchased Scottish Biochem (Glasgow, Scotland, UK)
# T8 sequence (Q01064 whole entry): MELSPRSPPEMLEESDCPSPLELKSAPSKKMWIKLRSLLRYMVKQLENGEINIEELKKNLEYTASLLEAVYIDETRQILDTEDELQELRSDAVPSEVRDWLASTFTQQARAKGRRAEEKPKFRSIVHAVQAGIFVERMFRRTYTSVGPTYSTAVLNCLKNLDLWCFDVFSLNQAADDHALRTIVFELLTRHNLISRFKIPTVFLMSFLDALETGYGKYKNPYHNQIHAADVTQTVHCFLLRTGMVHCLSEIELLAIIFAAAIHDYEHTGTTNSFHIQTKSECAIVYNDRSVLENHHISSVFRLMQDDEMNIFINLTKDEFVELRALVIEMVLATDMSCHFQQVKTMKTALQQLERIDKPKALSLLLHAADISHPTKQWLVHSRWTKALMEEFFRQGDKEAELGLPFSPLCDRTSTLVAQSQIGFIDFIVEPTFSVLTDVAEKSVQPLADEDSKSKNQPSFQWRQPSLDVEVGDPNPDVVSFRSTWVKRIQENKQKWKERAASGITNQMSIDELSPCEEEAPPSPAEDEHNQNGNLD
# PDE4A4 = target: T9, PDE4A4 (Homo sapiens, UniProt P27815); assay: PDE enzymatic profile; type: biochemical; conditions: read-out: GEBR-32a % inhibition, recombinant human PDE expressed in baculovirus
# T9 construct: purchased Scottish Biochem (Glasgow, Scotland, UK); host or cells: baculovirus system
# aged WT and Tg2576 mice = assay: Hippocampal long-term potentiation, fEPSP recordings in slices of chronically treated mice; type: in vivo, mouse; conditions: chronic 0.03 mg/kg for 23 days
# Description: Electrophysiological recordings have been carried out as previously described. […] A concentric bipolar platinum-iridium stimulation electrode and a low-resistance glass recording microelectrode filled with saline solution ([…]) were placed in CA1 stratum radiatum to record the extracellular field excitatory postsynaptic potential (fEPSP). Basal synaptic transmission was assayed by plotting the stimulus voltages against slopes of fEPSP.
# [5] = Pharmacokinetic analysis, plasma and brain; type: in vivo; conditions: male, mouse
# Description: For blood analysis, 25 μL of plasma were transferred into a 1.5 mL Eppendorf tube and were added with 25 μL of methanol and 25 μL of internal standard (500 ng/mL voriconazole), followed by the addition of 100 μL methanol. As for brains, 100 mg of tissue were placed into a plastic tube and added with 500 μL of methanol to facilitate homogenization, which was carried out using a Fluko F6/10 superfine homogenizer for approximately 1 min. […] A 25 μL aliquot of the homogenized samples was transferred into an Eppendorf tube and added with 20 μL of internal standard (500 ng/mL voriconazole) followed by the addition of 100 μL of methanol. […] AUC0-t: the area under the plasma/brain concentration versus time curve from time 0 to the last measurable concentration was calculated by using the linear trapezoidal rule. Cmax: the maximum observed plasma concentration.
# PDE5A1 = target: T10, PDE5A1 (Homo sapiens, UniProt O76074); assay: PDE enzymatic profile; type: biochemical
# T10 construct: purchased Scottish Biochem (Glasgow, Scotland, UK)
# PDE9A1 = target: T11, PDE9A1 (Homo sapiens, UniProt O76083); assay: PDE enzymatic profile; type: biochemical; conditions: read-out: GEBR-32a % inhibition, recombinant human PDE expressed in baculovirus, NI = no inhibition
# T11 construct: purchased Scottish Biochem (Glasgow, Scotland, UK)
# T11 sequence (O76083 whole entry): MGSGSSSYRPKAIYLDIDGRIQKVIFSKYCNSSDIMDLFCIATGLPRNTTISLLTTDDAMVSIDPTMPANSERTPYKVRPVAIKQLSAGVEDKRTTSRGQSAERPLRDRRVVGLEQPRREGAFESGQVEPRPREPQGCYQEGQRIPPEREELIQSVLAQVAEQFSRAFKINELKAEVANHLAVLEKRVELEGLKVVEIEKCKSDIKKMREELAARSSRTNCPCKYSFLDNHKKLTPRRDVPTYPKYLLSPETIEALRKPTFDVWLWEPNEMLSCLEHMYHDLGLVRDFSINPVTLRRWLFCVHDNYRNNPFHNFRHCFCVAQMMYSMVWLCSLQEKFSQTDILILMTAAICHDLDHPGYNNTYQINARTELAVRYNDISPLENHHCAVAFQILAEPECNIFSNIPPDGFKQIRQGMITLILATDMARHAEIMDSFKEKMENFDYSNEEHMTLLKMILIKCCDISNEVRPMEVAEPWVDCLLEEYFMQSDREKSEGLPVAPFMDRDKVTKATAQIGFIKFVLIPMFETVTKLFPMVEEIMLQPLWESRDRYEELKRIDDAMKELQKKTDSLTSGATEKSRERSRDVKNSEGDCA
# PDE11A1 = target: T12, PDE11A1 (Homo sapiens, UniProt Q9HCR9); assay: PDE enzymatic profile; type: biochemical; conditions: read-out: GEBR-32a % inhibition, recombinant human PDE expressed in baculovirus, NI = no inhibition
# T12 construct: purchased Scottish Biochem (Glasgow, Scotland, UK)
# T12 sequence (Q9HCR9 445-933): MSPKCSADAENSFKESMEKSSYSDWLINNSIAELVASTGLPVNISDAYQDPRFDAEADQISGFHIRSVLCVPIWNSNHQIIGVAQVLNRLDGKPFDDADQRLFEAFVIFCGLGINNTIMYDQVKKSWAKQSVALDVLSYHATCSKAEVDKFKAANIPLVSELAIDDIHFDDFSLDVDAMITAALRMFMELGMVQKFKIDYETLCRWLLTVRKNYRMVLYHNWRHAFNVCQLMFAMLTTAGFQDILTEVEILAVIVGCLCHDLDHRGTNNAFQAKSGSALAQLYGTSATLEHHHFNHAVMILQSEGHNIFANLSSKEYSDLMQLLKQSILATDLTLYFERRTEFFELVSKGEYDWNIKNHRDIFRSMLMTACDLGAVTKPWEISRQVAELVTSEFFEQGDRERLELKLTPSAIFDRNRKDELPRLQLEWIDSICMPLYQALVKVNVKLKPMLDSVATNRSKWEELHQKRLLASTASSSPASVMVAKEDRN
# PDE4A1 = target: T13, PDE4A1 (Homo sapiens, UniProt P27815); assay: PDE enzymatic profile; type: biochemical; conditions: read-out: GEBR-32a % inhibition, recombinant human PDE expressed in baculovirus
# T13 construct: purchased Scottish Biochem (Glasgow, Scotland, UK); host or cells: baculovirus system
# mice [6] = assay: Ketamine/xylazine induced α2-adrenoceptor-mediated anaesthesia test (emetic-like effect); type: in vivo, mouse; conditions: 0.003–3 mg/kg s.c., adult mice
# Description: The outcome measurement was the total time the animals were anesthetized, measured from anaesthesia induction to the righting reflex (i.e. when mice were back on all four paws). In order to reduce the number of animals for experimentation and to get sufficient group sizes, the experiments were performed three times with 2 recovery days in between. […] Normal distribution of data was evaluated by Kolmogorov–Smirnov and one-way ANOVA was used to compare all conditions.
# PDE4B1 = target: T14, PDE4B1 (Homo sapiens, UniProt Q07343); assay: PDE enzymatic profile; type: biochemical; conditions: read-out: GEBR-32a % inhibition, recombinant human PDE expressed in baculovirus
# T14 construct: purchased Scottish Biochem (Glasgow, Scotland, UK); host or cells: baculovirus system
# WT and Tg2576 mice = assay: Y-maze continuous alternation task; type: in vivo, mouse
# Description: The apparatus was made of grey Plexiglas with three arms symmetrically placed together at a 120° angle. At the beginning of the trial, each mouse was placed in one of three arms (randomly divided and balanced) and was then allowed to freely explore the apparatus for 6 minutes. The number of entries into a different arm and the order was measured. An entry was only counted if all four paws of the animal were placed completely inside the arm. When a mouse visited all 3 arms consecutively, it made a triad. In between trials, the apparatus was cleaned with a 70% ethanol solution to avoid olfactory cues. […] Of note, there was no statistical difference between testing sessions (day effect; data not shown) and, therefore, both test sessions were pooled. To measure spatial working memory, the percentage of alternations was calculated by taking the number of triads and dividing it through the maximum possible alternations (total entries minus 2) and multiply this by 100. A score of 50% alternations is considered chance level and, therefore, a significant difference from 50% is indicative of functional working memory. Normal distribution of data was evaluated by Kolmogorov–Smirnov and one-way ANOVA was performed to evaluate differences between the conditions. For each condition, one-sample t-test was used for comparison versus the score of 50%.
# rat hippocampal slices = assay: cAMP determination in hippocampal slices; type: cell-based; conditions: forskolin 0.1 μM
# Description: Hippocampal slices (400 μm thick) were obtained from adult Sprague Dawley rats using a McIlwain tissue chopper and pre-incubated in physiological medium[52] […] Finally, slices were left in hot medium (90 °C) for 15 min, sonicated and centrifuged at 10000 g for 15 min. The supernatant was used for cAMP determination, using the same kit as above, and the pellet for protein quantification.
# as §2
# PDE4B2 = target: T15, PDE4B2 (Homo sapiens, UniProt Q07343); assay: PDE enzymatic profile; type: biochemical; conditions: read-out: GEBR-32a % inhibition, recombinant human PDE expressed in baculovirus
# T15 construct: purchased Scottish Biochem (Glasgow, Scotland, UK); host or cells: baculovirus system
# HTLA cells [7] = assay: Genotoxicity, phosphorylation of histone H2A.X (Western blot); type: cell-based, human; conditions: 100 μM, 24 hours
# Description: as §1
# To evaluate genotoxicity, cells were processed for total protein extraction as described previously. Immunoblots were done according to standard methods, using the following antibodies: mouse monoclonal to gamma H2A.X (2F3, phospho S139) and rabbit polyclonal to Histone H2A.X (Abcam, UK); anti-mouse and anti-rabbit secondary antibodies coupled to horseradish peroxidase (GE Healthcare, UK). Proteins were visualized with an enzyme-linked chemiluminescence detection kit according to the manufacturer’s instructions (GE Healthcare). Chemiluminescence was monitored by exposure to films and signals were analyzed under non-saturating condition with an image densitometer (Bio-Rad, CA, USA).
# [8] = design: method as in PMID 27560284; conditions: parent compound; cited from earlier work
# HTLA cells [9] = tested on: HTLA cells; design: method as in PMID 27560284; conditions: 100 μM; same experimental conditions; cited from earlier work
# [10] = read-out: GEBR-32a % inhibition
# [11] = read-out: GEBR-32a % inhibition, 10 μM, recombinant human PDE expressed in baculovirus
# [12] = sc, brain, 10 mg/kg s.c., BALB/c mice
# [13] = sc, plasma, 10 mg/kg s.c., BALB/c mice
# [14] = Dipyridamole 50 μM, read-out: Comparator % inhibition
# T1 sequence (Q9Y233 1-779 isoform Q9Y233-1): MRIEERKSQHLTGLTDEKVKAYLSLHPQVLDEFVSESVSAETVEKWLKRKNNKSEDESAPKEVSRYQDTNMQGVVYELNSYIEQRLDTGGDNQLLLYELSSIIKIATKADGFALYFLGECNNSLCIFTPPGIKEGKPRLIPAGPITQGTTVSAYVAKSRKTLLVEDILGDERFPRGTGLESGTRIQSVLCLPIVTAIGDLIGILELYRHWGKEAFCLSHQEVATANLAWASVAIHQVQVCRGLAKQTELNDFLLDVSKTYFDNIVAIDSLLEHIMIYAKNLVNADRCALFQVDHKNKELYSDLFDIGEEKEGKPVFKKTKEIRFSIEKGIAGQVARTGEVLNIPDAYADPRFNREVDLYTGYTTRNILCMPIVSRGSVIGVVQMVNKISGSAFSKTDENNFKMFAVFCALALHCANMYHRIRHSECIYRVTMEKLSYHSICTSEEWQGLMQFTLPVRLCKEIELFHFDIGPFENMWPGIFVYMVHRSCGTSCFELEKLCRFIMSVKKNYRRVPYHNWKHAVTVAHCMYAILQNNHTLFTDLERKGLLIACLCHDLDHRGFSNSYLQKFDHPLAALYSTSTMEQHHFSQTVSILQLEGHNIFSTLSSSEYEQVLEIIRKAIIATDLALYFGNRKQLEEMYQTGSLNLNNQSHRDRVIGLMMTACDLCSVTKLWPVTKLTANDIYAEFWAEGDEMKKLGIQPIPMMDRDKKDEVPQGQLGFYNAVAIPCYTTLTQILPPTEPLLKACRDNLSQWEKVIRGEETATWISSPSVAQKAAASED
compound,measurement,setting,value
COc1ccc(C2CNC(=O)C2)cc1OC1CCCC1 (centres unmarked) [Rolipram],duration of anaesthesia (emetic-like effect),mice [1],significantly shortened anaesthesia time
O=C(Nc1c(Cl)cncc1Cl)c1ccc(OC(F)F)c(OCC2CC2)c1 [roflumilast],brain/plasma ratio,[2],1
"COc1ccc(Cc2nccc3cc(OC)c(OC)cc23)cc1OC [Papaverine, reference compound]",inhibition at 1 µM,"PDE10A1; Papaverine 1 μM, read-out: Comparator % inhibition",90.7%
"Cc1ccc([N+](=O)[O-])cc1S(=O)(=O)N(C)C [BRL-50481, reference compound]",Comparator % inhibition,PDE7A; BRL-50481 10 μM,78.6 (BRL-50481 10 μM) %
OC(CN1CCOCC1)Cn1ccc(-c2ccc(OC(F)F)c(OC3CCCC3)c2)n1 (centres unmarked) [GEBR-32a],inhibition at 10 µM,PDE8A1; [10],< 0%
same,inhibition at 10 µM,PDE2A3,< 0%
same,inhibition at 10 µM,PDE8B1; [11],23.5%
same,inhibition at 10 µM,PDE4B3,39.4%
same,inhibition at 10 µM,PDE7B; [11],8.61%
same,"cytotoxicity, lactate dehydrogenase release",HTLA cells [3],did not produce any significant effect
same,increase of the forskolin-induced elevation of cAMP in cultured cells,HTLA cells [4]; forskolin 1 μM,12 fold
same,increase of cAMP with respect to controls,HTLA cells [4]; without forskolin,2.5 fold
same,inhibition at 10 µM,PDE1B; [10],10.7%
same,inhibition at 10 µM,PDE4A4,11%
same,hippocampal LTP (fEPSP),aged WT and Tg2576 mice; aged Tg2576 mice,rescue the LTP deficit
same,hippocampal LTP (fEPSP),aged WT and Tg2576 mice; aged WT mice,"clear, though not significant, enhancement of LTP"
same,inhibition at 10 µM,"PDE7A; read-out: GEBR-32a % inhibition, 10 μM, recombinant human PDE expressed in baculovirus, NI = no inhibition",< 0%
same,Tmax,"[5]; BALB/c, plasma and brain, subcutaneous, 10 mg/kg, absorption and distribution to the brain",20 min
same,half-life,"[5]; BALB/c, plasma and brain, subcutaneous, 10 mg/kg, elimination, read-out: half-life (converted)",~60 min
same,Kp,"[5]; in vivo, sc, 10 mg/kg s.c., BALB/c mice, read-out: AUC0-t Ratio (Brain/Plasma)",2.71
same,AUC(0-t),[5]; [12],2330 ng·h/mL
same,Cmax,[5]; [12],2610 ng/g
same,Tmax,[5]; [12],19.8 min
same,half-life,"[5]; sc, brain, 10 mg/kg s.c., BALB/c mice, read-out: t1/2 (converted)",57 min
same,AUC(0-t),[5]; [13],861 ng·h/mL
same,Cmax,[5]; [13],993 ng/mL
same,Tmax,[5]; [13],19.8 min
same,half-life,"[5]; sc, plasma, 10 mg/kg s.c., BALB/c mice, read-out: t1/2 (converted)",57 min
same,inhibition at 10 µM,PDE5A1; [11],4.97%
same,inhibition at 10 µM,PDE9A1,< 0%
same,inhibition at 10 µM,PDE11A1,< 0%
same,inhibition at 10 µM,PDE10A1; [10],< 0%
same,inhibition at 10 µM,PDE4A1,41%
same,duration of anaesthesia (emetic-like effect),mice [6],did not significantly influence the duration of anaesthesia
same,inhibition at 10 µM,PDE4B1,41.6%
same,"percentage of alternations, Y-maze","WT and Tg2576 mice; adult WT mice, administered 30 min before trial, data not shown",not further improved
same,"percentage of alternations, Y-maze","WT and Tg2576 mice; aged Tg2576 mice, acute 0.0003–0.3 mg/kg s.c. 30 min before trial",not able to induce any improvement
same,"percentage of alternations, Y-maze","WT and Tg2576 mice; aged Tg2576 mice, chronic 0.03 mg/kg for up to 23 days",alternations significantly higher than 50%
same,"percentage of alternations, Y-maze","WT and Tg2576 mice; aged WT mice, acute, all doses tested 0.0003–0.3 mg/kg s.c. 30 min before trial",significantly ameliorated the performance
same,EC50,"rat hippocampal slices; Rattus norvegicus, 0.1–100 μM, read-out: apparent EC50, increase of forskolin-induced cAMP production",1800 nM
same,elevation of forskolin-induced cAMP production,rat hippocampal slices; highest concentration tested (100 μM),4 fold
same,inhibition at 10 µM,PDE4B2,26.3%
same,"genotoxicity, phosphorylation of histone H2A.X",HTLA cells [7],did not produce any significant effect
COc1ccc(-c2ccn(CC(O)CN3CCOCC3)n2)cc1OC1CCCC1 (centres unmarked) [compound 8a],brain/plasma ratio,[8],0.76
same,increase of the forskolin-induced elevation of cAMP in cultured cells,HTLA cells [9],4 fold
"CCCc1nn(C)c2c(=O)[nH]c(-c3cc(S(=O)(=O)N4CCN(C)CC4)ccc3OCC)nc12 [Sildenafil, reference compound]",inhibition at 10 µM,"PDE1B; Sildenafil 10 μM, read-out: Comparator % inhibition",74.4%
same,inhibition at 0.1 µM,PDE5A1; read-out: Comparator % inhibition,74.9%
"OCCN(CCO)c1nc(N2CCCCC2)c2nc(N(CCO)CCO)nc(N3CCCCC3)c2n1 [Dipyridamole, reference compound]",inhibition at 50 µM,PDE8A1; [14],64.4%
same,inhibition at 50 µM,PDE8B1; [14],57.4%
same,inhibition at 50 µM,PDE7B; [14],47.3%
